Assay results published in patent US20250346592A1 (Celgene Corporation, priority 2022, published 2025).

Tests used:
[1] = target: T1, hPAD4 enzyme (Homo sapiens (Human), UniProt Q9UM07); test: RFMS2 assay (RapidFire mass spectrometry, TSTGGRQGSHH peptide substrate); format: biochemical; conditions: 35 nM recombinant human PAD4, 500 μM TSTGGRQGSHH peptide, 30 minutes at room temperature; read-out: RFMS 2 IC50
How it was run: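 IC50 derived from RapidFire LC-MS/MS (positive ESI MRM) of substrate versus product after a 30 min room-temperature reaction stopped with 10% formic acid. Reaction contained 35 nM human PAD4, 500 μM peptide, 2 mM CaCl2, 5 mM DTT at pH 7.4, and compounds diluted 3-fold from 20 μM.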

[2] = target: T1, hPAD4 enzyme; test: RFMS1 assay (RapidFire mass spectrometry, BAEE substrate); format: biochemical; conditions: 5 nM hPAD4, 250 μM BAEE, 30 min preincubation at 37° C., 90 min reaction; read-out: RFMS 1 IC50
Procedure: Compounds were solubilized in 100% DMSO to achieve a 10 mM compound concentration. Compound stock solutions were stored at RT. A series of dilutions were prepared in DMSO and mixed 8 times with 20 μL mixing volume. Final top concentration of compound in the assay is 50 μM. Final assay conditions were as follows: • Reaction volume: 26 μl • Assay buffer: 25 mM hepes, pH 7.5, 5 mM NaCl, 1 mM DTT, 0.2 mg/ml BSA, 0.01% CHAPS, 50 µM Calcium, and 5 μM TPEN • Final concentrations: 5 nM hPAD4 enzyme, 250 µM BAEE, and 0.5% DMSO • Total incubation time: 30 mins compound and enzyme preincubation at 37° C., 90 min enzyme/substrate reaction, 30 min reaction with phenyl glyoxal at 37° C. • Stop solution: 40 μl 5% TCA in ACN • 0.13 μL of compound solution was added to 13 μL of 10 nM PAD4 in assay buffer. After […] min 13 μl of 500 µM of BAEE was added in 25 mM hepes, pH 7.5, 5 mM NaCl, 1 mM DTT, 0.2 mg/ml BSA, 0.01% CHAPS, 50 μM Calcium, 5 μM TPEN was added and the reaction incubated for 90 min at 37° C. The enzymatic reaction was quenched by addition of 15 μl of 6.1N TCA, 100% Final Concentration is 20%, 35 μl of 8.5 mM phenyl glyoxal (final concentration 4 mM) is then added and the reaction is incubated for 30 min at 37° C.
After 30 minutes the plates are spun down to remove all precipitate. The enzyme reaction was quenched with an equal volume of methanol containing internal standard (modified citrulline). Samples were loaded onto the Rapid Fire RF300 system (Agilent) wherein they were first sipped for 1000 ms and then directly loaded to a C18 separations cartridge using a mixture of acetonitrile containing 0.01% formic acid for 3000 ms desalting. The flow rate of the mobile phase was 1.5 ml/min. Once the samples were eluted from the cartridge, a mobile phase of acetonitrile containing 0.01% formic acid was used to move the samples into the mass spectrometer for 4000 ms at a flow rate of 1.25 ml/min/Sciex API5500 triple quadrupole mass spectrometer (Applied Biosystems) equipped with ESI was used to analyze the peptidyl citrulline and internal standard ions.
MRM transition of product and internal standard were monitored at m/z 424.5 to 350.4 and m/z 293 to 247 respectively. The dwell time for each transition was set at 200 ms, and the ESI voltage was used at 5500 with a source temperature of 400° C. Extracted ion peaks for each transition were integrated using the Rapid Fire Integrator software. Peak area of analyte was normalized with internal standard.).
Compounds having an activity designated as “A” provided an IC50≤10 nM; compounds having an activity designated as “B” provided an IC50 11-100 nM; compounds having an activity designated as “C” provided an IC50 101-500 nM; compounds having an activity designated as “D” provided an IC50 501-1000 nM; compounds having an activity designated as “E” provided an IC50>1000 nM.

T1 sequence (Q9UM07 whole entry): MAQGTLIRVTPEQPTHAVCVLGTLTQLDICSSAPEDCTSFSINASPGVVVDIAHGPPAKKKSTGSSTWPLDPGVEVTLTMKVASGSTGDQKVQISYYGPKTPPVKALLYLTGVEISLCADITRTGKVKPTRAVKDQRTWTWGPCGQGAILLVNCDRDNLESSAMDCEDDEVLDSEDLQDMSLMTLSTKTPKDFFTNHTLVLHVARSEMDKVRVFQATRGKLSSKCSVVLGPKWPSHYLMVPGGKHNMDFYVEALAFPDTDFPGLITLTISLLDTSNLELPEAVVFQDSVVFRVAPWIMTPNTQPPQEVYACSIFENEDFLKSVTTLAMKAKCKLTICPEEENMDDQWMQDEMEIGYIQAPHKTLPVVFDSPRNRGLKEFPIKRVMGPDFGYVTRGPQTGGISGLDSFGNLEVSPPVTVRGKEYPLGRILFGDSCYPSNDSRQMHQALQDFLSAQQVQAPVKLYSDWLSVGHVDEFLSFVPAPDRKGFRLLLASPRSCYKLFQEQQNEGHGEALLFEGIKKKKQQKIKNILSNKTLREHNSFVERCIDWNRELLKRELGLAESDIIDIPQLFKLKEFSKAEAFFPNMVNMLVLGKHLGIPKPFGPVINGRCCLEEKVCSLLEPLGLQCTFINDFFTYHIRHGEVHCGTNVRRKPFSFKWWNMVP

Row | SMILES | IC50 [1] | IC50 [2]
1 | COc1cccc2cc(-c3nc4cc5c(cc4n3C)CCN(C[C@H]3COCCN3)C5=O)n(Cc3ncco3)c12 [Example 232, (S)-2-(7-methoxy-1-(oxazol-2-ylmethyl)-1H-indol-2-yl)-1-methyl-6-(morpholin-3-ylmethyl)-1,6,7,8-tetrahydro-5H-imidazo[4,5-g]isoquinolin-5-one] | 101 to 500 nM | 101 to 500 nM
2 | C[C@H](CN1CCc2cc3c(cc2C1=O)nc(-c1cc2ccccc2n1CC1CC1)n3C)NCCF [Example 3, (R)-2-(1-(cyclopropylmethyl)-1H-indol-2-yl)-6-(2-((2-fluoroethyl)amino)propyl)-1-methyl-1,6,7,8-tetrahydro-5H-imidazo[4,5-g]isoquinolin-5-one] | > 1000 nM | > 1000 nM
3 | CN[C@H](C)CN1CCc2cc3c(cc2C1=O)nc(-c1cc2ccccc2n1CC1CC1)n3C [Example 1, (R)-2-(1-(cyclopropylmethyl)-1H-indol-2-yl)-1-methyl-6-(2-(methylamino)propyl)-1,6,7,8-tetrahydro-5H-imidazo[4,5-g]isoquinolin-5-one] | 101 to 500 nM | 501 to 1000 nM
4 | Cc1cc(N2CC(C)(C)OC2=O)ccc1-c1ccc2cc(-c3nc4cc5c(cc4n3C)CCN(C[C@H](N)CF)C5=O)n(CC3CC3)c2n1 [Example 58, (S)-3-(4-(2-(6-(2-amino-3-fluoropropyl)-1-methyl-5-oxo-5,6,7,8-tetrahydro-1H-imidazo[4,5-g]isoquinolin-2-yl)-1-(cyclopropylmethyl)-1H-pyrrolo[2,3-b]pyridin-6-yl)-3-methylphenyl)-5,5-dimethyloxazolidin-2-one] |  | 11 to 100 nM
5 | COc1cccc2cc(-c3nc4cc5c(c(F)c4n3C)CCN(C[C@H]3COCCN3)C5=O)n(CC3CC3)c12 [Example 240, (S)-2-(1-(cyclopropylmethyl)-7-methoxy-1H-indol-2-yl)-9-fluoro-1-methyl-6-(morpholin-3-ylmethyl)-1,6,7,8-tetrahydro-5H-imidazo[4,5-g]isoquinolin-5-one] |  | 101 to 500 nM
6 | Cc1cc(N2CCCS2(=O)=O)ccc1-c1ccc2cc(-c3nc4cc5c(cc4n3C)CCN(C[C@H](N)CF)C5=O)n(CC3CC3)c2n1 [Example 57, (S)-6-(2-amino-3-fluoropropyl)-2-(1-(cyclopropylmethyl)-6-(4-(1,1-dioxidoisothiazolidin-2-yl)-2-methylphenyl)-1H-pyrrolo[2,3-b]pyridin-2-yl)-1-methyl-1,6,7,8-tetrahydro-5H-imidazo[4,5-g]isoquinolin-5-one] |  | 11 to 100 nM
7 | Cc1cc(N2CC(C)(C)OC2=O)ccc1-c1ccc2cc(-c3nc4cc5c(cc4n3C)CCN(C[C@H]3COCCN3)C5=O)n(CC3CC3)c2n1 [Example 247, (S)-3-(4-(1-(cyclopropylmethyl)-2-(1-methyl-6-(morpholin-3-ylmethyl)-5-oxo-5,6,7,8-tetrahydro-1H-imidazo[4,5-g]isoquinolin-2-yl)-1H-pyrrolo[2,3-b]pyridin-6-yl)-3-methylphenyl)-5,5-dimethyloxazolidin-2-one] |  | 11 to 100 nM
8 | CC(=O)N1CCC(c2cccc3cc(-c4nc5cc6c(cc5n4C)CCN(C[C@H]4COCCN4)C6=O)n(CC4CC4)c23)CC1 [Example 243, (S)-2-(7-(1-acetylpiperidin-4-yl)-1-(cyclopropylmethyl)-1H-indol-2-yl)-1-methyl-6-(morpholin-3-ylmethyl)-1,6,7,8-tetrahydro-5H-imidazo[4,5-g]isoquinolin-5-one] |  | 11 to 100 nM
9 | Cc1cc(N2CCCS2(=O)=O)ccc1-c1ccc2cc(-c3nc4cc5c(cc4n3C)CCN(C[C@H]3COCCN3)C5=O)n(CC3CC3)c2n1 [Example 246, (S)-2-(1-(cyclopropylmethyl)-6-(4-(1,1-dioxidoisothiazolidin-2-yl)-2-methylphenyl)-1H-pyrrolo[2,3-b]pyridin-2-yl)-1-methyl-6-(morpholin-3-ylmethyl)-1,6,7,8-tetrahydro-5H-imidazo[4,5-g]isoquinolin-5-one] |  | 11 to 100 nM
10 | CCc1nc(N2CCOC2=O)ccc1-c1ccc2cc(-c3nc4cc5c(cc4n3C)CCN(C[C@H](N)CF)C5=O)n(CC3CC3)c2n1 [Example 61, (S)-3-(5-(2-(6-(2-amino-3-fluoropropyl)-1-methyl-5-oxo-5,6,7,8-tetrahydro-1H-imidazo[4,5-g]isoquinolin-2-yl)-1-(cyclopropylmethyl)-1H-pyrrolo[2,3-b]pyridin-6-yl)-6-ethylpyridin-2-yl)oxazolidin-2-one] |  | 11 to 100 nM

The next lines start with the values.

Row | IC50 [1] | IC50 [2] | SMILES
11 | 101 to 500 nM | 11 to 100 nM | COc1cccc2cc(-c3nc4cc5c(cc4n3C)CCN(C[C@H](N)CF)C5=O)n(Cc3nc(C)co3)c12 [Example 124, (S)-6-(2-amino-3-fluoropropyl)-2-(7-methoxy-1-((4-methyloxazol-2-yl)methyl)-1H-indol-2-yl)-1-methyl-1,6,7,8-tetrahydro-5H-imidazo[4,5-g]isoquinolin-5-one]
12 | 11 to 100 nM | ≤ 10 nM | Cn1c(-c2cc3cccc(OCCc4cnoc4)c3n2CC2CC2)nc2cc3c(cc21)CCN(C[C@H](N)CF)C3=O [Example 204, (S)-6-(2-amino-3-fluoropropyl)-2-(1-(cyclopropylmethyl)-7-(2-(isoxazol-4-yl)ethoxy)-1H-indol-2-yl)-1-methyl-1,6,7,8-tetrahydro-5H-imidazo[4,5-g]isoquinolin-5-one]
13 | 101 to 500 nM | ≤ 10 nM | Cn1c(-c2cc3cccc(OCCn4cncn4)c3n2CC2CC2)nc2cc3c(cc21)CCN(C[C@H](N)CF)C3=O [Example 150, (S)-2-(7-(2-(1H-1,2,4-triazol-1-yl)ethoxy)-1-(cyclopropylmethyl)-1H-indol-2-yl)-6-(2-amino-3-fluoropropyl)-1-methyl-1,6,7,8-tetrahydro-5H-imidazo[4,5-g]isoquinolin-5-one]
14 | 101 to 500 nM | 11 to 100 nM | Cc1nccn1CCOc1cccc2cc(-c3nc4cc5c(cc4n3C)CCN(C[C@H](N)CF)C5=O)n(CC3CC3)c12 [Example 165, (S)-6-(2-amino-3-fluoropropyl)-2-(1-(cyclopropyl-methyl)-7-(2-(2-methyl-1H-imidazol-1-yl)ethoxy)-1H-indol-2-yl)-1-methyl-1,6,7,8-tetrahydro-5H-imidazo [4,5-g]isoquinolin-5-one]
15 |  | 11 to 100 nM | COCC(=O)N1CCC(c2cccc3cc(-c4nc5cc6c(cc5n4C)CCN(C[C@H]4COCCN4)C6=O)n(CC4CC4)c23)CC1 [Example 244, (S)-2-(1-(cyclopropylmethyl)-7-(1-(2-methoxyacetyl)piperidin-4-yl)-1H-indol-2-yl)-1-methyl-6-(morpholin-3-ylmethyl)-1,6,7,8-tetrahydro-5H-imidazo[4,5-g]isoquinolin-5-one]
16 |  | ≤ 10 nM | C[C@H](COc1cccc2cc(-c3nc4cc5c(cc4n3C)CCN(C[C@H](N)CF)C5=O)n(CC3CC3)c12)n1cnc(F)c1 [Example 217, 6-((S)-2-amino-3-fluoropropyl)-2-(1-(cyclopropylmethyl)-7-((R)-2-(4-fluoro-1H-imidazol-1-yl)propoxy)-1H-indol-2-yl)-1-methyl-1,6,7,8-tetrahydro-5H-imidazo[4,5-g]isoquinolin-5-one]
17 |  | ≤ 10 nM | C[C@H](COc1cccc2cc(-c3nc4cc5c(c(F)c4n3C)CCN(C[C@H]3COCCN3)C5=O)n(CC3CC3)c12)n1cnc(F)c1 [Example 242, 2-(1-(cyclopropylmethyl)-7-((R)-2-(4-fluoro-1H-imidazol-1-yl)propoxy)-1H-indol-2-yl)-9-fluoro-1-methyl-6-(((S)-morpholin-3-yl)methyl)-1,6,7,8-tetrahydro-5H-imidazo[4,5-g]isoquinolin-5-one]
